Source: patent US20240084237A1, “A DEVICE HAVING A SUPPORT STRUCTURE FOR CREATING A HOLLOW, THREE-DIMENSIONAL ORGANOIDS AND CULTURES” (The Trustees of Indiana University, priority 2021, published 2024)

Tested on: iMG incorporated into the hollow organoid culture
Experiment: neural inflammation model: iMG incorporated into hollow (tubular) brain organoid culture, drug treatment
Format: cell-based, human
Conditions: for response of iMG incorporated into the hollow organoid culture to external stimulation: recapitulating the in vivo phenotype and functions during neural inflammation, LPS 100 ng/mL 24 hours followed by ATP 2 mM 30 minutes, DAMGO 100 nM 24 hours
Protocol: To differentiate WA01 cells into microglia, WA01 cells were plated onto Matrigel (Corning) coated 6-well plate at a density of 30-40 colonies per well. The WA01 cells were then differentiated into hematopoietic progenitor cells (HPC) using STEMdiff hematopoietic kit (Stemcell Technologies). The differentiated WA01 derived HPC was then further differentiated into induced microglia (iMG) cells using STEMdiff Microglia Differentiation kit (Stemcell Technologies).
To treat microglia cultured in well plates or microglia embedded in hFO, lipopolysaccharide (LPS) (Sigma) is dosed at 100 ng/mL for 24 hours followed by Adenosine 5′-triphosphate (ATP) (Sigma) at a concentration of 2 mM for 30 minutes. Similarly, DAMGO was given at a concentration of 100 nM for 24 hours. For LY-2828360 (Cayman Chemicals) treatment, microglia treated with DAMGO for 24 hours was refreshed with a medium containing 100 nM LY-2828360 for an additional 24 hours.
To visualize inflammasome activation inside microglia cells, we analyzed NLRP3/ASC colocalization by proximity ligation assay (PLA). Samples were subject to NLRP3/ASC staining following by colocalization PLA using the Duolink in situ red kit (Sigma). After the PLA labeling, samples were then additionally labeled by Iba1/MAP2 before coverslipped with Prolong gold anti-fade DAPI mounting medium (Thermo Fisher) and visualized under an inverted fluorescence microscope (Olympus IX-83).
Conditioned medium of 24 hours (total volume 500 μL) from control conditions or drug-treated conditions were collected from microglia cultured in 24 well plates or incorporated inside tubular organoids. The medium was centrifuged at 2,000 g for 10 minutes to remove cell debris. 400 μL of supernatant was then aspirated and used for ELISA assays. Samples were assayed using ELISA plates for IL-1β (Tribioscience), IL-18 (Tribioscience), and TNF-α (Abcam). Each sample was tested in triplicates and read at 450 nm for absorbance.

Molecule | response of iMG incorporated into the hollow organoid culture to external stimulation | response of the neural inflammation model to treatment (therapeutics screening) (100 nM for additional 24 hours after DAMGO 24 hours)
C[C@@H](NC(=O)[C@@H](N)Cc1ccc(O)cc1)C(=O)NCC(=O)N(C)[C@@H](Cc1ccccc1)C(=O)NCCO [DAMGO] | can respond | –
Cc1nc(N2CCN(C)CC2)c2nc(-c3ccccc3Cl)n(C3CCOCC3)c2n1 [LY282860] | – | evident responses
lipopolysaccharide [LPS] | can respond | –
